Laboratory results from US20220378756A1, “ACTIVATING PYRUVATE KINASE R” (FORMA Therapeutics, Inc., priority 2019, published 2022).

Tests used:
[1] = system: ATP and 2,3-DPG levels in blood cells; assay: 28-day daily dosing in non-human primates; type: in vivo
Procedure: 2,3-DPG levels in blood cells from non-human primates receiving daily doses of Compound 1 at 100, 350 and 550 mg/kg for 28 days were measured. Dose dependent decreases in 2,3-DPG levels were observed, with up to a 40% decrease from pretreatment levels, as illustrated in FIG. 22.

[2] = Preclinical safety and in vitro panels

In the case of `O=C([C@H](CO)c1ccccc1)N1CC2=C(C1)CN(S(=O)(=O)c1cnc3c(c1)OCCO3)C2` (single isomer, unassigned) [Compound 1], the “increase in ATP levels compared to pre-treatment” value ([1]; 550 mg/kg daily for 28 days (highest dose)) is reported as 90%, the “decrease in 2,3-DPG from pretreatment levels” value ([1]; daily doses 100, 350 and 550 mg/kg for 28 days) is reported as at most 40% and the “preclinical evidence of arrhythmia risk, mutagenicity, nonspecific binding” value [2] is reported as “has not demonstrated any preclinical evidence of arrhythmia risk, mutagenicity, or nonspecific binding activity”.
